Literature values in US20120231996A1, “Phalloidin derivatives and methods for their synthesis” (priority 2006, published 2012).
Numbered stars: 1 amine (or outer) side, 2 acyl side, 3 side chain; on linkers, the order of the positions; unused ones are H or OH. Bridge positions count the residues as written; N and C are the ends. Square brackets hold non-standard residues; d marks the D form. Peptide text beside a SMILES is read from it. Trp(2-yl) = O=C([C@H](Cc1c([*:3])[nH]c2ccccc12)N[*:1])[*:2]; Leu(4R-OH,5-OH) = C[C@](O)(CO)C[C@H](N)C(=O)O; cisHyp = O=C(O)[C@@H]1C[C@H](O)CN1

Assays:
[1] = test system: filamentous actin (F-actin)
[2] = test system: actin; details: in solution

## C[C@@H]1NC(=O)[C@H](C[C@@](C)(O)CO)NC(=O)[C@@H]2Cc3c([nH]c4ccccc34)SC[C@H](NC(=O)[C@@H]([C@H](C)O)NC1=O)C(=O)N1C[C@@H](O)C[C@H]1C(=O)N[C@@H](C)C(=O)N2 [Phalloidin] (cyclo(A[dT]C[cisHyp]A[Trp(2-yl)][Leu(4R-OH,5-OH)]); thioether 3-6)
[1]
  Affinity of binding to filamentous actin: binds with high affinity
[2]
  Effect on critical concentration of actin polymerization: lowers the critical concentration of actin polymerization
